Laboratory results: the supplement of paper PMC13380429

What was measured:
Settings in all cases: 72 h
Vero E6 [1] = assay: drug sensitivity score (DSS) for viability; higher = more toxic; extreme values may be limits of the assay
U2OS [2] = assay: as above
Calu-3 [3] = assay: as above
HepG2 [4] = assay: as above
Caco-2 [5] = assay: as above
U2OS [6] = assay: relative viability EC50 (midpoint between 100% and the lowest measured viability); higher = less toxic
Calu-3 [7] = assay: as above
HepG2 [8] = assay: as above
Caco-2 [9] = assay: as above
Vero E6 [10] = assay: cell viability relative to DMSO; higher = less toxic
U2OS [11] = assay: as above
Calu-3 [12] = assay: as above
HepG2 [13] = assay: as above
Caco-2 [14] = assay: as above
Vero E6 [15] = assay: relative viability EC50 (midpoint between 100% and the lowest measured viability); higher = less toxic

| SMILES | drug sensitivity score (Vero E6 [1]) | drug sensitivity score (U2OS [2]) | drug sensitivity score (Calu-3 [3]) | drug sensitivity score (HepG2 [4]) | drug sensitivity score (Caco-2 [5]) | relative viability EC50 (U2OS [6]) [µM] | relative viability EC50 (Calu-3 [7]) [µM] | relative viability EC50 (HepG2 [8]) [µM] | relative viability EC50 (Caco-2 [9]) [µM] | cell viability (Vero E6 [10]; 1 nM) [%] | cell viability (Vero E6 [10]; 10 nM) [%] | cell viability (Vero E6 [10]; 100 nM) [%] | cell viability (Vero E6 [10]; 1000 nM) [%] | cell viability (Vero E6 [10]; 10000 nM) [%] | cell viability (U2OS [11]; 1 nM) [%] | cell viability (U2OS [11]; 10 nM) [%] | cell viability (U2OS [11]; 100 nM) [%] | cell viability (U2OS [11]; 1000 nM) [%] | cell viability (U2OS [11]; 10000 nM) [%] | cell viability (Calu-3 [12]; 1 nM) [%] | cell viability (Calu-3 [12]; 10 nM) [%] | cell viability (Calu-3 [12]; 100 nM) [%] | cell viability (Calu-3 [12]; 1000 nM) [%] | cell viability (Calu-3 [12]; 10000 nM) [%] | cell viability (HepG2 [13]; 1 nM) [%] | cell viability (HepG2 [13]; 10 nM) [%] | cell viability (HepG2 [13]; 100 nM) [%] | cell viability (HepG2 [13]; 1000 nM) [%] | cell viability (HepG2 [13]; 10000 nM) [%] | cell viability (Caco-2 [14]; 1 nM) [%] | cell viability (Caco-2 [14]; 10 nM) [%] | cell viability (Caco-2 [14]; 100 nM) [%] | cell viability (Caco-2 [14]; 1000 nM) [%] | cell viability (Caco-2 [14]; 10000 nM) [%] | relative viability EC50 (Vero E6 [15]) [µM] |
| --- | --- | --- | --- | --- | --- | --- | --- | --- | --- | --- | --- | --- | --- | --- | --- | --- | --- | --- | --- | --- | --- | --- | --- | --- | --- | --- | --- | --- | --- | --- | --- | --- | --- | --- | --- |
| C#Cc1cccc(Nc2ncnc3cc(OCCOC)c(OCCO)cc23)c1 [OSI-420] | 4 | 0.3 | 13.1 | 0.6 | 2.3 | > 10 | 0.101 | > 10 | > 10 | 103 | 105 | 98.2 | 79 | 65.1 | 96.7 | 99.8 | 97.6 | 94.2 | 85.1 | 115 | 103 | 73.8 | 48.6 | 47 | 110 | 102 | 100 | 104 | 76.7 | 106 | 101 | 101 | 86.9 | 76.6 |  |
| Cc1ncc(C)n2nc([C@@H]3C[C@H]3c3nc4c5cccnc5ccn4c3C)nc12 [PDE10-IN-1] | 0 | 0 | 0 | 0 |  | > 10 | > 10 | > 10 |  | 93.5 | 98.2 | 99.6 | 99.3 | 105 | 98.6 | 95.5 | 100 | 95.9 | 97.9 | 106 | 98 | 105 | 114 | 117 | 98.7 | 105 | 96.1 | 115 | 98.1 |  |  |  |  |  | > 10 |
| CC(C)(O)CC(=O)NCCn1ccc2ncnc(Nc3ccc(Oc4cccc(C(F)(F)F)c4)c(Cl)c3)c21 [TAK-285] | 5.9 | 1 | 12.6 | 0.3 | 2.9 | > 10 | 0.228 | > 10 |  | 95.7 | 92.8 | 92.6 | 78.2 | 37.8 | 99.1 | 96.2 | 95 | 95.9 | 80.2 | 109 | 93.7 | 76.1 | 48.2 | 31 | 106 | 110 | 113 | 105 | 81.1 | 103 | 90.9 | 92.8 | 85 | 70 | 1.41 |
| Cn1c(=O)c(F)c(Nc2ccc(I)cc2F)c2c(=O)n(C[C@@H](O)CO)cnc21 [TAK-733] | 15.2 | 13.8 | 21.1 | 33.3 | 11.2 | 0.435 | 0.0323 | 0.0047 |  | 96.9 | 82.9 | 62.3 | 51.6 | 42.2 | 94.5 | 98.7 | 85.9 | 36 | 10.8 | 88.5 | 74.4 | 53.3 | 31.8 | 24.6 | 88.1 | 41.2 | 24.8 | 19.5 | 17.2 | 89.4 | 84.6 | 70.7 | 66.4 | 58.7 | 0.042 |
| O=C1CN2Cc3c(ccc(Cl)c3Cl)N=C2N1 [anagrelide] | 0 |  |  | 0 | 0 |  |  | > 10 | > 10 | 106 | 107 | 103 | 102 | 99.3 |  |  |  |  |  |  |  |  |  |  | 101 | 102 | 104 | 101 | 96.7 | 101 | 97.8 | 97.6 | 99.8 | 96.9 | > 10 |
| COC(=O)C1=C(C)NC(C)=C(C(=O)OC2CCCN(Cc3ccccc3)C2)C1c1cccc([N+](=O)[O-])c1 (centres undefined) [benidipine] | 0 | 0.5 | 0.6 | 0.4 | 2.1 | > 10 | > 10 | > 10 |  | 102 | 101 | 106 | 99 | 104 | 100 | 102 | 93.8 | 99.6 | 81.7 | 99 | 98.8 | 106 | 102 | 77.8 | 109 | 101 | 105 | 105 | 80.2 | 97.7 | 108 | 101 | 97 | 64.4 | > 10 |
| COc1cc2ncnc(Nc3ccc(F)c(Cl)c3)c2cc1NC(=O)/C=C/CN1CCCCC1 [dacomitinib] | 15.8 | 3.9 | 23.8 | 3.8 | 5.6 | 2.39 | 0.027 | 2.79 |  | 99.6 | 92.7 | 59.5 | 48.2 | 39.5 | 94.3 | 97.3 | 94.5 | 94.7 | 43.6 | 83.5 | 73.7 | 40.8 | 32.1 | 17 | 104 | 97.8 | 91.3 | 97 | 37.8 | 95.3 | 89.6 | 90.6 | 69.3 | 71.2 | 0.0579 |
| CCc1nc(C(N)=O)c(Nc2ccc(N3CCC(N4CCN(C)CC4)CC3)c(OC)c2)nc1NC1CCOCC1 [gilteritinib] | 3.3 | 4.1 | 3 | 7 | 3.9 | 2.12 |  | 1.36 |  | 106 | 103 | 100 | 101 | 37.2 | 105 | 102 | 99.1 | 93.1 | 46 | 96.4 | 95.8 | 96.3 | 94.1 | 59.8 | 99.2 | 92.1 | 92.4 | 73.5 | 27.9 | 110 | 98.1 | 102 | 90.2 | 54.4 | 3.25 |
| CC1=C(CCC(=O)O)c2cc3[nH]c(cc4nc(cc5[nH]c(cc1n2)c(C)c5C(C)O)C(C)=C4C(C)O)c(C)c3CCC(=O)O (centres undefined) [hematoporphyrin] | 0.4 | 0 | 0.6 | 0.8 | 0.8 | > 10 | > 10 | > 10 |  | 106 | 106 | 98.8 | 104 | 80.3 | 100 | 96.7 | 102 | 93.6 | 94.5 | 97.8 | 89 | 87.2 | 94.5 | 88.1 | 103 | 99.9 | 91.3 | 99.1 | 79.2 | 109 | 96.3 | 96.6 | 105 | 74.1 | > 10 |
| OCc1c[nH]c2ccccc12 [indole-3-carbinol] | 0 | 0 |  | 0 | 0.2 | > 10 |  | > 10 | > 10 | 104 | 97.1 | 93.1 | 99.2 | 97.5 | 99.9 | 101 | 99.3 | 104 | 93.7 |  |  |  |  |  | 105 | 96 | 99.9 | 88.1 | 101 | 103 | 103 | 99 | 97.8 | 87.4 | > 10 |
| C=CC(C)(O)CCC=C(C)C (centres undefined) [linalool] | 0 | 0 |  | 0 | 0 | > 10 |  | > 10 | > 10 | 101 | 104 | 96.3 | 102 | 98.7 | 103 | 95.7 | 97.4 | 95 | 97.9 |  |  |  |  |  | 95.5 | 102 | 96.5 | 100 | 95.2 | 110 | 99.2 | 99.2 | 93.7 | 99.2 | > 10 |
| CN(CCCN1c2ccccc2CCc2ccccc21)CC(=O)c1ccc(Cl)cc1 [lofepramine] | 0 |  |  | 0 | 0 |  |  | > 10 | > 10 | 99 | 102 | 97.2 | 101 | 101 |  |  |  |  |  |  |  |  |  |  | 105 | 105 | 102 | 96.9 | 106 | 103 | 107 | 101 | 94.9 | 92 | > 10 |
| Nc1ccc2cc3ccc(N)cc3nc2c1 [proflavine-hemisulfate] | 5.3 |  | 1.6 | 9.1 | 2.3 |  |  | 1.57 | 3.6 | 94.6 | 100 | 90.7 | 89.4 | 35.8 |  |  |  |  |  | 89.2 | 95.9 | 103 | 103 | 62.6 | 96.5 | 103 | 92.7 | 76.2 | 2 | 100 | 88.4 | 99 | 105 | 49.3 | 1.9 |
| CN1CCCN=C1/C=C/c1cccs1 [pyrantel-pamoate] | 0 | 0 |  | 0 | 0 | > 10 |  | > 10 | > 10 | 107 | 99.9 | 96.4 | 101 | 99.4 | 99.6 | 96.9 | 99.1 | 95.3 | 101 |  |  |  |  |  | 97.4 | 106 | 103 | 104 | 92.6 | 93.3 | 94.8 | 98.8 | 96 | 100 | > 10 |
| CCCCCCCC/C=C/C(=O)O [trans-2-undecenoic-acid] |  | 0 | 0 | 0 | 0 | > 10 | > 10 | > 10 | > 10 |  |  |  |  |  | 101 | 97 | 102 | 100 | 99.5 | 104 | 95.1 | 96.4 | 104 | 108 | 106 | 104 | 101 | 105 | 95.8 | 109 | 105 | 108 | 93.5 | 98.9 |  |
| C/C(=C\CNc1ncnc2[nH]cnc12)CO [zeatin] | 0 | 0 |  | 0 | 0 | > 10 |  | > 10 | > 10 | 95.7 | 99.4 | 97 | 100 | 107 | 96.8 | 99.4 | 95.4 | 98.9 | 102 |  |  |  |  |  | 94.7 | 92.9 | 108 | 102 | 110 | 94.1 | 104 | 88.1 | 92.5 | 101 | > 10 |
